# In patent US20040014942A1, “Mutant strains capable of producing chemically diversified proteins by incorporation of non-conventional amino acids” (priority 2000, published 2004):
# What was measured:
# [1] = tested on: strain β5366 (wild-type valS allele); experiment: Sensitivity to non-canonical amino acids, growth inhibition zone on Petri dishes; format: cell-based, E. coli; conditions: 100 mM solution in central well
# Protocol: (1) 100 mM L-2-amino-butyrate
# (2) 100 mM L-2-amino-valerate
# (3) 100 mM L-2-3-diamino-propionate
# [2] = tested on: strain β5274 (thyA:Ile146); experiment: Phenotypic suppression by cysteine; format: cell-based, E. coli; conditions: 0.1 mM isoleucine
# Protocol: The plasmid pTS2 thus obtained propagates the allele thyA:Ile146, in which the position 146 occupied in the wild-type thyA gene by the codon UGC of cysteine is occupied by the codon AUA of isoleucine. The strain propagating the plasmidic allele thyA:Ile146, […], proves to require the nutritional addition of thymine, thymidine or cysteine in excess, as in the case of the strain β5366. Phenotypic suppression of the strain β5274 by cysteine is abolished by 0.1 mM isoleucine, just as that of the strain β5366 is abolished by valine. Thus everything happens as if the isoleucyl-tRNA synthetase was capable of forming erroneous Cys-tRNA^Ile's in the presence of an excess of cysteine, and this erroneous formation was prevented by the presence of an excess of isoleucine.
# [3] = tested on: strain β5366 (thyA:Val146); experiment: Growth over a cysteine diffusion gradient; format: cell-based, E. coli
# Source text: (§1) The plasmid pTS1 thus obtained propagates the allele thyA:Val146, in which the position 146 occupied in the wild-type thyA gene by the codon UGC of cysteine is occupied by the codon GUA of valine. The plasmid pTS1 is introduced by transformation, carried out according to the method of Sambrook and coll. (1989), in the strain ΔthyA of E. coli K12, β1308 (Lemeignan and coll., 1993), whereof the chromosome gene of the thymidylate synthase, thyA, is deleted. […] Thus, everything happens as if the cysteine could infiltrate the active site of the valyl-tRNA synthetase to form erroneous Cys-tRNA^val's capable of correcting the replacement of cysteine by valine in the active site of the thymidylate synthase. The excess valine would prevent the formation of these erroneous Cys-tRNA^val's.
# [4] = tested on: strains β5479, β5485 and β5486; experiment: Phenotype of new valS mutants from mutator strain; format: cell-based, Escherichia coli
# Source text: Three of these clones served to prepare lysates of the phage P1, which were used to transduce the strain β5366, by selecting for resistance to kanamycin, following the procedure of Example 5. […] The locus valS of the three strains β5479, β5485 and β5486, each corresponding to an SCC-suppressible transducer obtained from one of the three lysates was amplified by PCR and sequenced as described in Example 3. A different localised mutation was found for each of the three strains, viz. Arg 223 changed into His in the strain β5479, Val 276 changed into Ala in the strain β5485 and Asp 230 changed into Asn in the strain β5486.
# adapted strain β8144 = experiment: Phenotypic suppression by metabolic precursors of cysteine; format: cell-based, E. coli; conditions: 3 mM (L-thiazolidine4-carboxylate acid 2 mM), instead of thymidine or thymine
# Source text: (§2) The nutritional requirement for cysteine of the adapted strains β8144 and β8146 is utilised to characterise metabolic precursors which can replace cysteine in the culture medium without giving rise to degradation by oxidation. […] However, the addition of none of these substances allows the growth of the strain β1308 leading to chromosomal deletion of the gene thyA of thymidylate synthase, thus excluding their contamination by traces of thymine or thymidine.
# adapted strain β8146 = experiment: as above; format: cell-based, E. coli; conditions: 3 mM (L-thiazolidine4-carboxylate acid 2 mM), instead of thymidine or thymine
# Source text: as §2
# strain β1308 (ΔthyA) = experiment: Growth over a cysteine diffusion gradient; format: cell-based, E. coli; conditions: same conditions
# Source text: as §1
# [5] = tested on: twelve clones from serial propagation of β5366; experiment: Growth factor test of clones after serial culture; format: cell-based, E. coli; conditions: glucose mineral MS medium dishes
# Protocol: The cells are then washed twice with deoxygenated mineral MS medium. A deoxygenated nutritive medium containing 10 ml glucose mineral MS medium to which 1.5 mM cysteine is added is inoculated at 1/100 using washed cells. The cells are then cultivated in anaerobiosis for 24 hours at 30° C. and a fresh tube containing 10 ml deoxygenated cysteine glucose mineral MS medium is inoculated with a 1/100 dilution of the culture at the preceding stationary phase. This procedure is repeated 26 times. At the end of this serial propagation, 12 clones from the liquid culture are isolated on dishes of thymidine (0.3 mM) glucose mineral MS medium (2 g/l) in aerobiosis and kept in suspension in the same liquid medium at −80° C. The twelve clones are tested on dishes containing glucose mineral MS medium with nutritional factors added.
# [6] = tested on: strain β5419 with mutator allele dnaQ::miniTn10; experiment: Selection on solid medium with S-carbamyl-L-cysteine; format: cell-based, E. coli; conditions: dishes 0 to 8 mM, without thymidine, 96 hours at 30°, mutator allele only
# Source text: The strain β5366 carrying the false-sense allele thyA:Val146 on the plasmid pTS1 is transduced with a lysate of the phage P1 harvested on an auxiliary strain of E. coli (β7170, Bouzon et al., 1997) in the chromosome of which a marker of resistance to kanamycin had been introduced at the locus nrdD, neighbour of the locus valS of the gene of valyl-tRNA synthetase, thus producing the strain β5419. A mutator allele of the gene dnaQ is introduced extemporaneously by transduction of the strain β5419 using a lysate of the phage P1 harvested on an auxiliary strain (MS2131, Shapiro, 1990) carrying a marker of resistance to the tetracycline dnaQ::miniTn10. […] After 24 hours, the cells are harvested, and washed twice in an identical volume of culture medium without thymidine. A volume of 0.1 ml of the resultant suspension, corresponding to approximately 10^8 bacteria, is spread on the surface of a series of Petri dishes containing a concentration of S-carbamyl-L-cysteine varying between 0 and 8 mM by adding 1 mM increments of the glucose mineral MS medium (2 g/l). The same procedure is applied to the non-mutator strain β5419, and to the wild-type gene dnaQ. All the Petri dishes are incubated for 96 hours at 30°. […]
# strain β5455 = experiment: Growth with S-carbamyl-L-cysteine without thymine or thymidine; format: cell-based, E. coli; conditions: 3 mM S-carbamyl-L-cysteine
# Source text: A lysate of the phage P1 harvested from such a clone is used to transduce the strain β5366 carrying the plasmidic allele thyA:Val146. […] The other half of the transducers are incapable of this, and require thymine or thymidine to proliferate, just like the strain β5366. This proportion of the phenotypes is in accordance with the genetic distance between the loci valS and nrdD (0.4 mn). Thus, suppression of the false-sense mutation of thyA Cys->Val by a low concentration of exogenous cysteine could result from an alteration of the gene of valyl-tRNA synthetase. […] An A changed into a C causes replacement of the threonine at position 222 by proline, thus confirming the fixation of a genetic alteration in the gene valS of the strain β5455.
molecule,measurement,setting,value
NC[C@H](N)C(=O)O [L-2-3-diamino-propionate],effect on growth,[1],without effect
CC[C@H](C)[C@H](N)C(=O)O [isoleucine],effect on phenotypic suppression by cysteine,[2],abolished
CC(C)[C@H](N)C(=O)O [valine],effect on growth over a cysteine gradient,[3]; 0.1 mM valine added to Petri dish medium,abolishes the growth
L-2-amino-butyrate,effect on growth,[1],without effect
same,sensitivity to amino-butyrate,[4]; clones suppressing false-sense mutant Cys 146 Val of thyA,shows sensitivity
CCC[C@H](N)C(=O)O [L-2-amino-valerate],effect on growth,[1],without effect
CSC[C@H](N)C(=O)O [S-methyl-L-cysteine],replacing cysteine as a growth factor,adapted strain β8144,capable of replacing cysteine as a growth factor
same,replacing cysteine as a growth factor,adapted strain β8146,capable of replacing cysteine as a growth factor
N[C@@H](CS)C(=O)O [L-cysteine],growth over a cysteine diffusion gradient,strain β1308 (ΔthyA),does not give rise to any detectable growth
same,growth over a cysteine diffusion gradient,"[3]; 30° C., glucose mineral MS medium, central well 0.1 ml of 400 mM L-cysteine",marginal growth
same,cysteine concentration in culture medium replacing thymine or thymidine as growth factor,[5],at least 1.5 mM
O=C(O)[C@@H]1CSCN1 [L-thiazolidine4-carboxylate acid],replacing cysteine as a growth factor,adapted strain β8144,capable of replacing cysteine as a growth factor
same,replacing cysteine as a growth factor,adapted strain β8146,capable of replacing cysteine as a growth factor
NC(=O)SC[C@H](N)C(=O)O [S-carbamyl-L-cysteine],replacing cysteine as a growth factor,adapted strain β8144,capable of replacing cysteine as a growth factor
same,replacing cysteine as a growth factor,adapted strain β8146,capable of replacing cysteine as a growth factor
same,concentration of S-carbamyl-L-cysteine at which colonies appear,[6],exceeding 2 mM
same,growth in the absence of thymine or thymidine,strain β5455,capable of growing
same,growth in glucose mineral solid medium without thymidine,"[4]; 3 mM SCC, approximately half the transducers",capable of growing
